Experimental data published in patent US20180161291A1, “EXTENDED RELEASE UREA COMPOSITIONS” (Kato Pharmaceuticals, Inc., priority 2015, published 2018).

Columns and labels:
[1] = tested on: non-diabetic patients with symptomatic VMA; assay: U.S. Phase Ib study: induction of PVD by multiple intravitreal injections of urea; type: in vivo, human; settings: preliminary
Protocol: (§1) A study was conducted to examine effect of multiple intravitreal injections of small molecule formulation of urea on induction of posterior vitreous detachment (PVD).
(§2) Formulation: Sterile lyophilized Urea, USP-NF in buffered isotonic saline for intravitreal injections. Injectable: Reconstituted with 300 μL sterile water for injection. Dosage form: 100 μL dose contains 18 mg Urea, USP-NF (18% w/v) in glass vial. Storage: room temperature. Stability: stable >24 mo for lyophilized form. […] PVD rate: 25% targeted efficacy.
(§3) U.S. study design: 2:1 randomized, Phase Ib, dose ranging & safety study. Patient population: 30 non-diabetic patients with symptomatic VMA. Treatment: high dose arm (Day 0: 100 μL 18% w/v injection; Day 30: 100 μL 18% w/v injection for all unresolved patients); low dose arm (Day 0: 100 μL 9% w/v injection; Day 30: 100 μL 9% w/v injection for all unresolved patients). Follow-up: days 0, 2, 8, 15, 30, 60, 90 and 180.

[2] = tested on: non-diabetic patients with symptomatic VMA; assay: Multiple intravitreal injections of urea: overall (pooled) results; type: in vivo, human
Protocol: as §1, §2, §3
(§4) Ex-U.S. study design: 3:1 randomized, controlled, Phase Ib, POC & safety study. Patient population: non-diabetic patients with symptomatic VMA. Treatment arm: 20 patients. Control arm: 5 patients. Treatment: high dose arm (Day 0: 100 μL 36% w/v injection; Day 30: 100 μL 36% w/v injection for all unresolved patients); low dose arm (Day 0: 100 μL 18% w/v injection; Day 30: 100 μL 18% w/v injection for all unresolved patients). Follow-up: days 0, 2, 8, 15, 30, 45, 60 and 90.
FIGS. 10 and 11 show the preliminary US and ex-US results, respectively. For the US study, 4 of 10 patients in high-dose group met primary endpoint, 1 of 7 patients in low-dose group met primary endpoint. For the ex-US study, 5 of 11 patients in high-dose group met primary endpoint, 3 of 6 patients in low-dose group met primary endpoint.

[3] = tested on: non sighted patients with optic nerve damage caused by trauma and/or glaucoma; assay: Treatment of neuropathies, double masked placebo controlled dose escalation study; type: in vivo, human
Protocol: In accordance with the present disclosure, urea, thiourea, guanidine and possibly the other compounds of General Formula I above are effective to treat neuropathies 5 (e.g., disorders or damage to nerves). In this example, 33 non sighted patients with optic nerve damage caused by trauma and/or glaucoma, with visual acuity of light perception or no light perception were administered a urea-containing formulation, as disclosed herein. The study was a double masked placebo controlled, randomized, dose escalation study conducted with 33 human patients with optic nerve damage. Patients were randomized into 5 groups, Group 1 of 5 patients. Group 2 of 4 patients, Group 3 of 8 patients, Group 4 of 8 patients and Group 5 of 8 patients. Each patient received a single intravitreal injection of 50 UI of an aqueous treatment solution, as follows:
In Six patients the vision improved from No light perception to light perception, in 2 patients the vision improved from light perception to count fingers at 12 inches, in 2 patients the vision improved from no light perception to 20 20/400 and 20/800 vision and in 2 patients the vision improved from light perception to 20/600 and 20/800 vision. No patients in the placebo group reported any improvement in best corrected visual acuity as measured by ETDRS charts.

[4] = tested on: patient with stage 3 idiopathic macular hole; assay: Treatment of idiopathic macular hole: intravitreal urea followed by expandable gas; type: in vivo, human; settings: for visual acuity: baseline 20/400; for size of the macular hole: baseline 450 μm
Protocol: The macular defect was classified as a stage 3 macular hole, and the patient's visual acuity was recorded at 20/400 at a baseline time point prior to urea treatment. […] Seven days after the intravitreal urea injection the patient was administered an intravitreal injection of 0.3 ml of expandable gas (C3 F8).
One week after administration of the gas, the size of the macular hole had decreased from 450 μm to a smaller size of 200 μm and the patient's vision had improved from a baseline visual acuity of 20/400 to 20/80. Two weeks post treatment the size of the macular hole had decreased from 450 μm to a smaller size of 90 μm and the patient's vision had improved from a baseline visual Acuity of 20/400 to 20170. Four weeks post treatment the size of the macular hole had decreased from 450 μm to a smaller size of 60 μm and the patient's vision had improved from a baseline visual acuity of 20/400 to 20/60.

[5] = tested on: non-diabetic patients with symptomatic VMA; assay: Ex-U.S. Phase Ib study: induction of PVD by multiple intravitreal injections of urea; type: in vivo, human; settings: preliminary
Protocol: as §1, §2, §4

[6] = tested on: human patients with diabetes-related nonclearing vitreous hemorrhage; assay: Treatment of vitreous hemorrhage; type: in vivo; settings: within 2 to 4 weeks after single intravitreal injection of 6% urea, 0.9% sodium chloride; seven patients
Protocol: The formulations and treatments disclosed herein are also effective to treat vitreous hemorrhage. In this example, seven human patients were treated for diabetes-related nonclearing vitreous hemorrhage. Each patient received a single intravitreal injection of 1001l of a formulation containing urea. The formulation used in this example contained 6% urea, 0.9% sodium chloride, and sterile water for injection (qs 100%).

[7] = cited from earlier work
[8] = tested on: human patients with retinitis pigmentosa; assay: Treatment of retinitis pigmentosa, double masked placebo controlled dose escalation study; type: in vivo
Protocol: A double masked placebo controlled, randomized, dose escalation study was done in 32 human patients with retinitis pigmentosa. All patients were treated with a single intravitreal injection of 50 μl of a urea-containing formulation. Three groups of patients received different concentrations of urea. One group received a formulation containing 1.5% urea, 0.9% sodium chloride, and sterile water for injection. A second group received an identical formulation except the formulation contained 3.0% urea. A third group received an identical formulation except the formulation contained 6.0% urea. A placebo group received 50 μl of 0.9% sodium chloride.
Forty-seven percent of the patient reported an increase of at least 3 lines of best corrected visual acuity measured by ETDRS charts, whereas, only 14% of the placebo patients reported an increase of at least 3 lines of best corrected visual acuity measured by ETDRS charts.
There was no dramatic increase in the visual field of the placebo control patients.

[9] = Storage stability of lyophilized urea formulation; type: physicochemical; settings: storage at room temperature
Protocol: as §2

[10] = tested on: patients with long standing optic nerve damage related to optic nerve tumors; assay: Treatment of optic nerve damage related to optic nerve tumors; type: in vivo, human
Protocol: In another study, three patients with long standing (6 months or longer) optic nerve damage related to optic nerve tumors were treated with a single intravitreal injection of 100 μl of a 6% urea containing formulation. All three patient treated reported a significant improvement in visual acuity after treatment. The patients' visual acuity improved from an average of Count Fingers at 12 inches to 20/200.

[11] = tested on: human patients requiring pars plana vitrectomy; assay: Treatment as adjunct to vitrectomy; type: in vivo
Protocol: In this example, five human patients requiring pars plana vitrectomy for various indications were treated one week prior to vitrectomy with a single intravitreal injection of 100 μl of a urea in aqueous solution. The formulation contained 6% urea, 0.9% sodium chloride, and sterile water for injection (qs 100%). All patients underwent routine vitrectomies 8 to 10 days after the urea injection. The minimum waiting time between the urea injection and the vitrectomy procedure is about 1 day to 3 days.
No vitrectomy cutter was used.

[12] = tested on: human patients with single or multiple retinal tears; assay: Treatment of retinal tears: intravitreal urea 3 days before pneumatic Retinopexy; type: in vivo
Protocol: All patients received pneumatic Retinopexy treatment 3 days after intravitreal injection of 1.5 mg of urea in 50 μl of aqueous solution prepared according to the formulation set forth in Table II above. […] Within 3-7 days after urea injection, 11/12 patients had developed PVD, only 1/12 patients had not developed PVD. Within 90 days of the urea injection that one patient also developed PVD.
Within 3 days of treatment 9/12 patients had complete retinal reattachment and macular attachment, and within 7 days all 12 patients had complete retinal reattachment and macular attachment. […]
(Tornambe, P. E. et. al. Opthalmology, 1989; 96: 772-783).

[13] = tested on: patients with nonproliferative diabetic retinopathy; assay: Treatment of diabetic retinopathy; type: in vivo, human; settings: within 2-4 weeks after single intravitreal injection of 3% urea, 0.9% sodium chloride; 69 patients
Description: Sixty-nine patients with nonproliferative diabetic retinopathy were each administered a single intravitreal injection of 50 UI of a urea formulation containing 3% urea, 0.9% sodium chloride, and sterile water for injection.
The vitreous liquefaction and vitreous collapse in non-proliferative diabetic retinopathy patients would inhibit the growth and proliferation of the blood vessels, and thus inhibit the progression of diabetic retinopathy. All 69 (of the) patients were followed for six months following the procedure.

[14] = tested on: vitreous and retina of injected eyes; settings: cited from earlier work
[15] = one week after administration of the gas

NC(N)=O [urea]
patients who met primary endpoint ([1]; high-dose group, 100 μL 18% w/v): 4 of 10 | patients who met primary endpoint ([1]; low-dose group, 100 μL 9% w/v): 1 of 7 | efficacy ([2]; after a second injection): 40% | % resolution of VMA ([2]; non-ERM): 44% | safety: drug related adverse effects ([2]; up to 4 injections): no drug related adverse effects | efficacy ([2]; with one injection): 30% | patients whose vision improved from No light perception to light perception ([3]; in vivo): Six | patients whose vision improved from light perception to 20/600 and 20/800 vision ([3]; in vivo): 2 patients | patients whose vision improved from light perception to count fingers at 12 inches ([3]; in vivo): 2 patients | patients whose vision improved from no light perception to 20/400 and 20/800 vision ([3]; in vivo): 2 patients | patients with an increase of best corrected visual acuity (ETDRS charts) ([3]; single intravitreal injection of 0.2%, 1.5%, 3.0% or 6.0% urea, no improvement in placebo group): Forty-three | adverse effects of the intravitreal injection, ophthalmoscopic and biomicroscopic examination ([4]; 1.5 mg urea, Table III formulation): no adverse effects | visual acuity ([4]; four weeks post treatment): 20/60 | size of the macular hole ([4]; four weeks post treatment): 60 μm | visual acuity [4, 15]: 20/80 | size of the macular hole [4, 15]: 200 μm | time to complete Posterior Vitreous Detachment (PVD) ([4]; single intravitreal injection 1.5 mg urea, Table III formulation, one patient): ≤ 7 days | size of the macular hole ([4]; two weeks post treatment): 90 μm | patients who met primary endpoint ([5]; high-dose group, 100 μL 36% w/v): 5 of 11 | patients who met primary endpoint ([5]; low-dose group, 100 μL 18% w/v): 3 of 6 | patients with clearance of vitreous hemorrhage sufficient to treat the retina with photocoagulation [6]: All seven | pH of solution ([7]; 10% water solution): 7.2 | stability of the solid ([7]; stored under dry conditions): stable at room temperature | patients with an increase of at least 3 lines of best corrected visual acuity (ETDRS charts) ([8]; single intravitreal 50 μl of 1.5%, 3.0% or 6.0% urea, placebo 14%): Forty-seven | average improvement in the patient's visual field ([8]; urea-treated patients): 10 degrees | stability of lyophilized form [9]: > 24 mo | average visual acuity after treatment ([10]; from an average of Count Fingers at 12 inches): 20/200 | patients reporting a significant improvement in visual acuity after treatment ([10]; single intravitreal 100 μl of 6% urea, three patients): All three | decrease in surgical time relative to patients who did not receive urea ([11]; 6% urea, 100 μl intravitreal one week prior to vitrectomy): 70% | vitreous status at the time of vitrectomy ([11]; by one week after single intravitreal 100 μl of 6% urea, 0.9% sodium chloride, five patients): complete vitreous liquefaction and collapse | adverse effects of the intravitreal injection, ophthalmoscopic and biomicroscopic examination ([12]; 1.5 mg urea in 50 μl, Table II formulation, 12 patients): no adverse effects | patients with improvement of more than 2 lines of visual acuity (11 letters) ([12]; 6 months post Retinopexy): 64% | occurrence of new retinal tears with associated retinal detachment ([12]; follow up 90 days): none | patients with improvement of more than 2 lines of visual acuity (11 letters) ([12]; time not printed in the sentence (1 month post Retinopexy by context)): 64% | patients who developed PVD ([12]; within 3-7 days after urea injection): 11/12 | patients with complete retinal reattachment and macular attachment ([12]; within 3 days of treatment): 9/12 | patients with complete retinal reattachment and macular attachment ([12]; within 7 days): 12 patients | patients with complete vitreous liquefaction and collapse [13]: 69 patients

Collagenase
reported adverse effect on the injected eye ([14]; dispase: 15 minutes after injection): disrupt the outer layers of the retina | reported effect on the vitreous ([14]; in vivo): liquefy the vitreous
